Counter-ions that a name gives are not always drawn.

One data set concerns IL-1β. Briefly: THP-1 AlphaLISA IL-1β cytokine assay. The class given is cell-based. Particulars: LPS 24 hr then Nigericin 1 hour. On the procedure:
(§1) Measuring Inhibitory Effects on IL-1V and IL-6 Cytokine Output from THP-1s
(§2) The cytokine inhibition profiles of compounds of formula (I) were determined in a differentiated THP-1 cell assay. All assays were performed in RPMI-1640 growth medium (Gibco), supplemented with 10% fetal bovine serum (FBS; Gibco), 1% penicillin-streptomycin and 1% sodium pyruvate unless specified otherwise. The IL-1β and IL-6 cytokine inhibition assays were run in a background of differentiated THP-1 cells as described below. All reagents described were from Sigma-Aldrich unless specified otherwise. Compounds were prepared as 10 mM DMSO stocks.
(§3) THP-1 cells were expanded as a suspension up to 80% confluence in appropriate growth medium. Cells were harvested, suspended, and treated with an appropriate concentration of phorbol 12-myristate 13-acetate (PMA) over a 72 hr period (37° C./5% CO2).
(§4) Following 72 hrs of THP-1 cell incubation, cellular medium was removed and replaced with fresh growth media containing 1% of FBS. Working concentrations of compounds were prepared separately in 10% FBS treated growth medium and pre-incubated with the cells for 30 minutes (37° C./5% CO2). Following the 30 minute compound pre-incubation, THP-1s were treated with an appropriate concentration of LPS and the THP-1s were subsequently incubated for a 24 hr period (37° C./5% CO2). An appropriate final concentration of Nigericin was then dispensed into the THP-1 plates and incubated for 1 hour (37° C./5% CO2) before THP-1 supernatants were harvested and collected in separate polypropylene 96-well holding plates.
(§5) Reagents from each of the IL-1β and IL-6 commercial kits (Perkin Elmer) were prepared and run according to the manufacturer's instructions. Subsequently, fluorescence signal detection in a microplate reader was measured (EnVision® Multilabel Reader, Perkin Elmer).
(§6) Percentage inhibition was calculated per cytokine by normalising the sample data to the high and low controls used within each plate (+/−LPS respectively). Percentage inhibition was then plotted against compound concentration and the 50% inhibitory concentration ([…]) was determined from the resultant concentration-response curve.
(In general: In Alpha technology, singlet oxygen from a donor bead excites a nearby acceptor bead.)

A further data set concerns IL-6. Briefly: THP-1 AlphaLISA IL-6 cytokine assay. The class given is cell-based. The following applies: LPS 24 hr then Nigericin 1 hour. As for the experimental part:
as §1, §2, §3, §4, §5, §6

The subject of a further data set is NRF2. Briefly: NRF2 +/- GSH activation assay (DiscoverX PathHunter NRF2 translocation kit). Particulars: for Emax / NRF2 activation Emax: normalised to dimethyl fumarate high control; for EC50: U2OS PathHunter cells. Type of data set: cell-based.
The test system of data set [1] is hepatocytes. Briefly: Hepatocyte stability assay (human). The following applies: 10 μM compound, 60 min. Type of data set: in vitro ADME. The text has this: (§7) Defrosted cryo-preserved hepatocytes (viability>70%) were used to determine the metabolic stability of a compound via calculation of intrinsic clearance (Clint; a measure of the removal of a compound from the liver in the absence of blood flow and cell binding). Clearance data are particularly important for in vitro work as they can be used in combination with in vivo data to predict the half-life and oral bioavailability of a drug.
(§8) The metabolic stability in hepatocytes assay involved a time-dependent reaction using both positive and negative controls. The cells must be pre-incubated at 37° C. then spiked with test compound (and positive control); samples taken at pre-determined time intervals were analysed to monitor the change in concentration of the initial drug compound over 60 minutes. A buffer incubation reaction (with no hepatocytes present) acted as a negative control and two cocktail solutions, containing compounds with known high and low clearance values (verapamil/7-hydroxycoumarin and propranolol/diltiazem), acted as positive controls. • 1. The assay was run with a cell concentration of 0.5×10^6 cells/mL in Leibovitz buffer. • 2. All compounds and controls were run in duplicate. • 3. Compound concentration was 10 μM. • 4. All compounds and controls were incubated with both cells and buffer to show turnover is due to hepatic metabolism. • 5. All wells on the incubation plate had 326.7 μL of either cells or buffer added. • 6. Prior to assay, cell and buffer-only incubation plates were preincubated for 10 mins at 37° C. • 7. The assay was initiated by adding compounds, 3.3 μL of 1 mM in 10% DMSO-90% Buffer; final DMSO concentration is 0.1%. • 8. Samples were taken at regular timepoints (0, 5, 10, 20, 40, 60 min) until 60 mins. • 9. Sample volume was 40 μL and added to 160 μL of crash solvent (acetonitrile with internal standard) and stored on ice. • 10. At the end of the assay, the crash plates were centrifuged at 3500 rpm for 20 mins at 4° C. • 11. 80 μL of clear supernatant was removed and mixed with 80 μL of deionised water before being analysed by LC-MS/MS.
(§9) Raw LC-MS/MS data were exported to, and analysed in, Microsoft Excel for determination of intrinsic clearance. The percentage remaining of a compound was monitored using the peak area of the initial concentration as 100%. Intrinsic clearance and half-life values were calculated using a graph of the natural log of percentage remaining versus the time of reaction in minutes. Half-life (min) and intrinsic clearance (Clint in μL min^−1 10^−6 cells) values were calculated using the gradient of the graph (the elimination rate constant, k) and Equations 1 and 2.

In data set [2] the test system is hepatocytes. Briefly: Hepatocyte stability assay (mouse). The class given is in vitro ADME. Particulars: 10 μM compound, 60 min.
Description: as §7, §8, §9

Where [3] appears, read: Homo sapiens, THP-1, differentiated THP-1 cells.

Usually IC50 stands for the concentration at which inhibition is half-maximal. Consider `C=C(CC(=O)OC1(c2ccc(C(F)(F)F)cc2Cl)CCC1)C(=O)O` [Example 6, 4-(1-(2-chloro-4-(trifluoromethyl)phenyl)cyclobutoxy)-2-methylene-4-oxobutanoic acid], for which the figures for the IC50 with IL-1β (setting [3]) and in the data set on IL-6 (setting [3]) were 45.4 µM and greater than 100 µM, respectively.

On to `C=C(CC(=O)OCc1ccc(C(F)(F)F)cn1)C(=O)O` [Example 56, 2-methylene-4-oxo-4-((5-(trifluoromethyl)pyridin-2-yl)methoxy)butanoic acid], for which the IC50 was 46.2 µM in the data set with IL-1β (setting [3]) and greater than 100 µM in the data set on IL-6 (setting [3]).

Turning to `C=C(CC(=O)OC1(c2cc(F)c(C(F)(F)F)c(F)c2)CCC1)C(=O)O` [Example 53, 4-(1-(3,5-difluoro-4-(trifluoromethyl)phenyl)cyclobutoxy)-2-methylene-4-oxobutanoic acid], the values for the IC50 in the data set on IL-1β (setting [3]) and in the data set with IL-6 (setting [3]) were 29.7 µM and greater than 100 µM, respectively.

By Emax is commonly meant the size of the effect at its maximum, as opposed to the concentration needed. Regarding `C=C(CC(=O)OC)C(=O)OC` [dimethyl itaconate, reference compound], the half-inhibitory concentration (IC50) with IL-1β (setting [3]) is greater than 100 µM; in the data set on IL-6 (setting [3]), 100 µM. The results for the Emax in the data set with NRF2 (+GSH) and in the data set on NRF2 (−GSH) were 77% and 137%, respectively.

As to `C=C(CC(=O)OC1(c2ccc(C)c(Cl)c2)CCC1)C(=O)O` [Example 14, 4-(1-(3-chloro-4-methylphenyl)cyclobutoxy)-2-methylene-4-oxobutanoic acid], the results for the IC50 in the data set with IL-1β (setting [3]) and in the data set on IL-6 (setting [3]) were 24.5 µM and greater than 100 µM, respectively.

Take `C=C(CC(=O)O[C@H](C)c1ccc(C(F)(F)F)cc1)C(=O)O` [Example 3, (R)-2-methylene-4-oxo-4-(1-(4-(trifluoromethyl)phenyl)ethoxy)butanoic acid]: the IC50 in the data set on IL-1β (setting [3]) is 33.6 µM; with IL-6 (setting [3]), greater than 56.2 µM.

Take `C=C(CC(=O)O[C@@H](c1ccc(C(F)(F)F)cc1)C(F)(F)F)C(=O)O` [Example 33, (S)-2-methylene-4-oxo-4-(2,2,2-trifluoro-1-(4-(trifluoromethyl)phenyl)ethoxy)butanoic acid]: the IC50 in the data set on IL-1β (setting [3]) was greater than 56.2 µM; in the data set with IL-6 (setting [3]), greater than 63.1 µM.

`C=C(CC(=O)OC1(c2ccc(C(F)(F)F)cc2)CC(C(F)(F)F)C1)C(=O)O` (single isomer, unassigned) [Example 43, 2-methylene-4-oxo-4-(3-(trifluoromethyl)-1-(4-(trifluoromethyl)phenyl)cyclobutoxy)butanoic acid]: the IC50 is 83.5 µM with IL-1β (setting [3]) and greater than 100 µM with IL-6 (setting [3]).

With `C=C(CC(=O)OC1(c2cnc(C(F)(F)F)cn2)CCC1)C(=O)O` [Example 63, 2-methylene-4-oxo-4-(1-(5-(trifluoromethyl)pyrazin-2-yl)cyclobutoxy)butanoic acid], the figures for the IC50 in the data set on IL-1β (setting [3]) and in the data set with IL-6 (setting [3]) were 50.9 µM and greater than 31.6 µM, respectively.

On to `C=C(CC(=O)OC1(c2ccc(-c3ccc(F)cc3)cc2)CCC1)C(=O)O` [Example 16, 4-(1-(4′-fluoro-[1,1′-biphenyl]-4-yl)cyclobutoxy)-2-methylene-4-oxobutanoic acid], for which the IC50 is greater than 100 µM with IL-1β (setting [3]) and 21.5 µM with IL-6 (setting [3]).

What is called EC50 is the concentration giving half of the maximal effect. Regarding `C=C(CC(=O)OCCCCCCCC)C(=O)O` [4-octyl itaconate, reference compound], the IC50 with IL-1β (differentiated THP-1 cells) came out at 38.3 µM; with IL-6 (differentiated THP-1 cells) it was 20.3 µM. In addition, the Clint is given as 401 μL min^−1 10^−6 cells with hepatocytes [1] and 351 μL min^−1 10^−6 cells in the data set on hepatocytes [2]. Further, the T½ in the data set on hepatocytes [1] and in the data set on hepatocytes [2] was 0.067 h in each case. In addition, the EC50 with NRF2 (+GSH) was found to be 28.9 µM; with NRF2 (−GSH), 22.1 µM. Also, the “NRF2 activation Emax” value worked out at 148% with NRF2 (+GSH) and 165% in the data set with NRF2 (−GSH).

Take `COC(=O)/C=C/C(=O)OC` [dimethyl fumarate, reference compound]: the IC50 is 14.4 µM in the data set with IL-1β (differentiated THP-1 cells) and 9.3 µM with IL-6 (setting [3]). Further, the Emax stood at 19% with NRF2 (+GSH) and 100% in the data set on NRF2 (−GSH). The EC50 is greater than 100 µM in the data set with NRF2 (Homo sapiens, U2OS, +GSH) and 6 µM with NRF2 (Homo sapiens, U2OS, −GSH).

In the case of `C=C(CC(=O)OC(CC)c1ccc(C(F)(F)F)cc1)C(=O)O` (stereo not drawn) [Example 10, 2-methylene-4-oxo-4-(1-(4-(trifluoromethyl)phenyl)propoxy)butanoic acid], the IC50 in the data set with IL-1β (setting [3]) was 5.8 µM; with IL-6 (setting [3]), greater than 100 µM. Moreover, the Emax in the data set with NRF2 (+GSH) was 13%; in the data set with NRF2 (−GSH), 0%. Further, the EC50 is greater than 100 µM in the data set on NRF2 (Homo sapiens, U2OS, +GSH) and greater than 100 µM in the data set with NRF2 (Homo sapiens, U2OS, −GSH).

As to `C=C(CC(=O)OC1(c2ccc(C(F)(F)F)cc2)CN(C)C1)C(=O)O` [Example 48, 4-((1-methyl-3-(4-(trifluoromethyl)phenyl)azetidin-3-yl)oxy)-2-methylene-4-oxobutanoic acid], the values for the IC50 with IL-1β (setting [3]) and with IL-6 (setting [3]) were 58.4 µM and greater than 31.6 µM, respectively.

Consider `C=C(CC(=O)OC1(c2ccc(OC(F)(F)F)cc2)CCC1)C(=O)O` [Example 15, 2-methylene-4-oxo-4-(1-(4-(trifluoromethoxy)phenyl)cyclobutoxy)butanoic acid], for which the IC50 in the data set with IL-1β (setting [3]) was 15.9 µM; in the data set with IL-6 (setting [3]) it was greater than 100 µM.

For the molecule `C#CC(OC(=O)CC(=C)C(=O)O)c1ccc(C(F)(F)F)cc1` (single isomer, unassigned) [Example 37, 2-methylene-4-oxo-4-((1-(4-(trifluoromethyl)phenyl)prop-2-yn-1-yl)oxy)butanoic acid], the results for the IC50 in the data set with IL-1β (setting [3]) and in the data set on IL-6 (differentiated THP-1 cells) were 14.5 µM and greater than 31.6 µM, respectively. Besides, the Clint was less than 3 μL min^−1 10^−6 cells in the data set with hepatocytes [1] and 34 μL min^−1 10^−6 cells with hepatocytes [2]. Also, the T½ in the data set with hepatocytes [1] is greater than 7.67 h; with hepatocytes [2], 0.8 h.

For the molecule `C#CC(OC(=O)CC(=C)C(=O)O)c1ccc(C(F)(F)F)cc1` (single isomer, unassigned) [Example 38, 2-methylene-4-oxo-4-((1-(4-(trifluoromethyl)phenyl)prop-2-yn-1-yl)oxy)butanoic acid], the IC50 with IL-1β (differentiated THP-1 cells) is 9.4 µM; in the data set on IL-6 (differentiated THP-1 cells), greater than 100 µM. For the same molecule, the figures for the Clint in the data set on hepatocytes [1] and in the data set on hepatocytes [2] were 7 μL min^−1 10^−6 cells and 13 μL min^−1 10^−6 cells, respectively. In addition, the T½ was found to be 3.05 h in the data set on hepatocytes [1] and 2.72 h in the data set with hepatocytes [2].

Consider `C=C(CC(=O)OC1(C#Cc2ccc(C(F)(F)F)cc2)CCC1)C(=O)O` [Example 60, 2-methylene-4-oxo-4-(1-((4-(trifluoromethyl)phenyl)ethynyl)cyclobutoxy)butanoic acid], for which the IC50 in the data set with IL-1β (setting [3]) is greater than 100 µM; in the data set on IL-6 (setting [3]), 34.1 µM.

As for `C=C(CC(=O)OC1(c2ccc(C(F)(F)c3ccccc3)cc2)CCC1)C(=O)O` [Example 28, 4-(1-(4-(difluoro(phenyl)methyl)phenyl)cyclobutoxy)-2-methylene-4-oxobutanoic acid], the IC50 in the data set with IL-1β (setting [3]) was greater than 31.6 µM; with IL-6 (setting [3]), 19.6 µM.

For the molecule `C=C(CC(=O)OC1(c2ccc3cc(Br)ccc3c2)CCC1)C(=O)O` [Example 54, 4-(1-(6-bromonaphthalen-2-yl)cyclobutoxy)-2-methylene-4-oxobutanoic acid], the IC50 with IL-1β (setting [3]) was greater than 100 µM; with IL-6 (setting [3]), 18.1 µM.
